According to patent EP2633864A1, “Clip inhibitors and methods of modulating immune function” (The Regents of the University of Colorado, priority 2008, dated 2010):

How the values were obtained:
mouse splenic B cells = assay: TLR ligand induced ectopic CLIP on mouse splenic B cells in vitro (15G4 anti-CLIP/I-Ab versus B220); format: cell-based; conditions: treatment in vitro; figure 12d
Source text: Mouse splenocytes or T-depleted splenocytes were red cell depleted using Geys Solution, and cells were counted. For T-depleted B cell preparations, B cells were separated by discontinuous Percoll (Pharmacia LKB Biotechnology, Piscataway, NJ) gradients (13). Those cells layering at the 1.079/1.085 g/ml interface (1.079 < ρ ≤ 1.085) are designated throughout as resting B cells. Cells layering at the BSS/1.066 g/ml interface (ρ ≤ 1.066) are designated as activated. Viable cells from this latter interface were isolated using Lympholyte-M (Cedarlane Laboratories, Ltd., Hornby, Ontario, Canada). Cells from each layer were harvested, washed, and resuspended at 10^7 cells/ml in PBS containing 5% fetal calf serum.
Total splenocytes, from either B6.129, Ii-deficient, or H2M-deficient mice were cultured with LPS for 24, 48, 72, or 96 hours as indicated. Cells were harvested and stained by two-color fluorescence using 15G4-FITC anti-mouse CLIP/I-A^b versus anti-mouse B220 PE. […]
Freshly isolated splenocytes, single cell suspensions of lymph node cells, resting (or activated) B cells, or primed B cells were isolated from B6.129, Ii-deficient, or H2M-deficient mice and cultured in 24 well plates in complete RPMI medium, with or without the appropriate Toll ligand, at 10^6 cells/ml. […] Cells were stained by two-color fluorescence using 15G4-FITC anti-mouse CLIP/I-A^b versus anti-mouse B220 PE. […]

B cell surface CLIP = assay: Effect on B cell surface CLIP (Figure 4); format: cell-based

| Structure (SMILES) | exogenous CLIP expression on the activated mouse B cells (mouse splenic B cells) | B cell surface CLIP (B cell surface CLIP) |
| --- | --- | --- |
| CCOCc1nc2c(N)nc3ccccc3c2n1CC(C)(C)O [R848, imidazoquinoline resiquimod] | resulted in exogenous CLIP expression | – |
| OC[C@H]1OC(O)C[C@@H](O)[C@@H]1O (some centres unmarked) [2-Deoxyglucose, 2-deoxyglucose] | – | affects B cell surface CLIP |
